Results published in patent US8946211B2, “Fused aminodihydrothiazine derivatives” (Eisai R&D Management Co., Ltd., priority 2008, dated 2015).
Where two headings read alike, the source gives them in different places.

Tested on: Aβ42 production
Assay: Quantification of Aβ peptide in culture of neurons from rat fetus brain (Aβ ELISA)
Type: cell-based
Conditions: rat primary cortical neuronal culture (embryonic day 18 Wistar rats), medium collected three days after addition of the compound, Aβx-42 ELISA, read-out: Aβ42 production reducing effect IC50
Procedure: Quantification of Aβ Peptide in Culture of Neurons from Rat Fetus Brain
(1) Rat Primary Neuronal Culture
Primary neuronal cultures were prepared from the cerebral cortex of embryonic day 18 Wistar rats (Charles River Japan, Yokohama, Japan). Specifically, the embryos were aseptically removed from pregnant rats under ether anesthesia. The brain was isolated from the embryo and immersed in an ice-cold L-15 medium (such as Invitrogen Corp. Cat #11415-064, Carlsbad, Calif., USA, or SIGMA L1518). The cerebral cortex was collected from the isolated brain under a stereoscopic microscope. The cerebral cortex fragments collected were enzymatically treated in an enzyme solution containing 0.25% trypsin (Invitrogen Corp. Cat #15050-065, Carlsbad, Calif., USA) and 0.01% DNase (Sigma D5025, St. Louis, Mo., USA) at 37° C. for 30 minutes to disperse the cells. Here, the enzymatic reaction was stopped by adding inactivated horse serum to the solution. The enzymatically treated solution was centrifuged at 1,500 rpm for five minutes to remove the supernatant. 5 to 10 mL of a medium was added to the resulting cell mass. Neurobasal medium (Invitrogen Corp. Cat #21103-049, Carlsbad, Calif., USA) supplemented with 2% B27 supplement (Invitrogen Corp. Cat #17504-044, Carlsbad, Calif., USA), 25 μM 2-mercaptoethanol (2-ME, WAKO Cat #139-06861, Osaka, Japan), 0.5 mM L-glutamine (Invitrogen Corp. Cat #25030-081, Carlsbad, Calif., USA), and Antibiotics-Antimycotics (Invitrogen Corp. Cat #15240-062, Carlsbad, Calif., USA) was used as the medium (Neurobasal/B27/2-ME). However, the above Neurobasal medium not supplemented with 2-ME (Neurobasal/B27) was used for the assay. The cells were redispersed by mild pipetting of the cell mass to which the medium was added. The cell dispersion was filtered through a 40-μm nylon mesh (Cell Strainer, Cat #35-2340, Becton Dickinson Labware, Franklin Lakes, N.J., USA) to remove the remaining cell mass, and thus a neuronal cell suspension was obtained. The neuronal cell suspension was diluted with the medium and then plated in a volume of 100 μL/well at an initial cell density of 5×10^5 cells/cm^2 in a 96-well polystyrene culture plate pre-coated with poly-L or D-lysine (Falcon Cat #35-3075, Becton Dickinson Labware, Franklin Lakes, N.J., USA coated with poly-L-lysine using the method shown below, or BIOCOAT™ cell environments Poly-D-lysine cell ware 96-well plate, Cat #35-6461, Becton Dickinson Labware, Franklin Lakes, N.J., USA). Poly-L-lysine coating was carried out as follows. 100 μg/mL of a poly-L-lysine (SIGMA P2636, St. Louis, Mo., USA) solution was aseptically prepared with a 0.15 M borate buffer (pH 8.5). […]

SMILES | IC50 (Neuron, 72 h) | IC50
NC1=N[C@@]2(c3cc(NC(=O)c4ccc(Cl)cn4)ccc3F)CCCCC[C@H]2CS1 (single isomer, unassigned) [Example 248, N-[3-((4aR*,9aS*)-2-amino-4,4a,5,6,7,8,9,9a-octahydrocyclohepta[d][1,3]thiazin-9a-yl)-4-fluorophenyl]-5-chloropyridine-2-carboxamide] | 16 nM | –
NC1=N[C@@]2(c3cc(NC(=O)c4ncccc4F)ccc3F)CCCCC[C@H]2CS1 [Example 251] | – | 120 nM
NC1=N[C@@]2(c3cc(NC(=O)c4ncccc4C(F)(F)F)ccc3F)CCCCC[C@H]2CS1 [Example 252] | – | 187 nM
NC1=N[C@@]2(c3cc(NC(=O)c4ncccc4Br)ccc3F)CCCCC[C@H]2CS1 [Example 253] | – | 171 nM
